Reference: ChEMBL document CHEMBL5543121, “Drug Repurposing of ACT001 to Discover Novel Promising Sulfide Prodrugs with Improved Safety and Potent Activity for Neutrophil-Mediated Antifungal Immunotherapy” (J Med Chem, 2024)

Experiments:
[1] = Subacute toxicity in C57BL/6 mouse assessed as abnormal behavior at 100 mg/kg, po administered daily for 14 days and measured every day; format: organism-based; conditions: in vivo, 336 h, time 14 day
[2] = Subacute toxicity in C57BL/6 mouse assessed as change in heart weight at 100 mg/kg, po administered daily for 14 days; format: organism-based; conditions: in vivo, 336 h, time 14 day
[3] = Acute toxicity in C57BL/6 mouse assessed as effect on ALT level in serum at 500 mg/kg, po administered as single dose and measured every day for 14 days; format: organism-based; conditions: in vivo, 336 h, time 14 day
[4] = MRT (0 to t) in male Sprague-Dawley rat at 10 mg/kg, po by LC-MS/MS analysis; format: ADME, organism-based; conditions: in vivo
[5] = Subacute toxicity in C57BL/6 mouse assessed as effect on AST level in serum at 100 mg/kg, po administered daily for 14 days and measured every day; format: organism-based; conditions: in vivo, 336 h, time 14 day
[6] = test system: Neutrophil; test: Potency index, ratio of ACT001 IC50 to test compound IC50 for inhibition of fungal curdlan induced PD-L1 expression in mouse neutrophils assessed as reduction in PD-L1 positive Ly6G positive neutrophils incubated for 16 hrs by flow cytometry analysis; format: functional
[7] = Tmax in male Sprague-Dawley rat at 2 mg/kg, iv by LC-MS/MS analysis; format: ADME, organism-based; conditions: in vivo
[8] = Subacute toxicity in C57BL/6 mouse assessed as effect on urea level in serum at 100 mg/kg, po administered daily for 14 days and measured every day; format: organism-based; conditions: in vivo, 336 h, time 14 day
[9] = Acute toxicity in C57BL/6 mouse assessed as change in kidney weight at 500 mg/kg, po administered as single dose and measured after 14 days; format: organism-based; conditions: in vivo, 336 h, time 14 day
[10] = Acute toxicity in C57BL/6 mouse assessed as signs of morbidity at 500 mg/kg, po administered as single dose and measured every day for 14 days; format: organism-based; conditions: in vivo, 336 h, time 14 day
[11] = Initial plasma concentration in male Sprague-Dawley rat at 2 mg/kg, iv by LC-MS/MS analysis; format: ADME, organism-based

C[C@@]1(O)CC[C@]23O[C@@]2(C)CC[C@@H]2[C@H](OC(=O)[C@H]2CS(=O)(=O)c2c(Cl)cccc2Cl)[C@@H]13
Activity [1]: Non-Toxic
Activity [2]: Non-Toxic
Activity [3]: Non-Toxic
MRT last [4]: 104 min
Activity [5]: Non-Toxic
Ratio IC50 [6]: 4.46
Tmax [7]: 8.4 min
Activity [8]: Non-Toxic
Activity [9]: Non-Toxic
Activity [10]: Non-Toxic
C0 [11]: 191 ng/mL
